Reference: PMC11574045, “A cofactor-induced repressive type of transcription factor condensation can be induced by synthetic peptides to suppress tumorigenesis” (The EMBO Journal, 2024)
Several values for one entry are separate records, joined by “and”; a condition that tells them apart may be missing. Equal entries are not always repeated.

Legend:
[1] = tested on: CTGF promoter occupancy in HEK293FT cells; assay: ChIP-qPCR; type: cell-based; settings: VGLL4-overexpressing HEK293FT cells + 1,6-Hex; three biological replicates
Experimental: ChIP was carried out following a procedure previously described (An et al, [2018]). Briefly, cells were first cross-linked with freshly prepared formaldehyde (final concentration 1.42%) for 15 min, followed by addition of glycine (125 mM) for 5 min at room temperature. After a two-round wash with cold PBS, cells were scraped and collected by centrifuge. Resulting pelleted cells were resuspended in 400 μl of ChIP lysis buffer (50 mM HEPES/KOH, pH 7.5; 140 mM NaCl; 1 mM EDTA; 1% Triton X-100; 0.1% Na-deoxycholate and protease inhibitors) and subjected to sonication with Bioruptor at high power for 15 cycles (30 s on and 30 s off for each cycle) to shear the chromatin. Samples were then further diluted twice with lysis buffer and the diluted samples were centrifuged to clear the supernatants. Meanwhile, eighty microliters of each of the supernatants were directly processed to extract total DNA as whole-cell input. […] Prewashed protein A/G beads (L2118; Santa Cuz) were added into these samples, which were then incubated for another 3 h. These incubated samples were washed five times with ChIP lysis buffer and then mixed with 100 μl of 10% chelex (1421253; Bio-Rad), followed by being boiled for 10 min and centrifuged at 4 °C for 1 min. Resulting supernatants were transferred to new tubes. Subsequently, another 120 μl of MilliQ water were added to each fraction of beads pellet, and the resulting mixtures were vortexed for 10 s, and then centrifuged again to spin down the beads. The supernatants were combined as templates for follow-up qPCR analysis.

[2] = tested on: MYC / CYR61 promoter-enhancer interactions in HEK293FT cells; assay: Chromatin conformation capture (3C) assay; type: cell-based; settings: VGLL4-overexpressing HEK293FT cells + 1,6-Hex; three biological replicates
Experimental: The 3C assay was performed following a protocol described previously ([…] et al, [2007]). Briefly, cells were incubated with 0.05% trypsin for 10 min before detaching. Collected cells were cross-linked with 2% formaldehyde for 10 min, followed by treatment with 0.125 M glycine for 5 min to quench the cross-linking reaction. Cells were then pelleted and incubated with a lysis buffer (10 mM Tris-HCl pH 7.5, 10 mM NaCl, 5 mM MgCl2 and 0.1 mM EGTA) at 4 °C for 15 min. Resulting pelleted nuclei were digested with Hind-III restriction enzyme (NEB) at 37 °C overnight and subsequently ligated with T4 DNA ligase (NEB) at 16 °C for 4 h. Thereafter, the samples were incubated at 65 °C overnight to de-crosslink the protein-DNA complexes and were subjected to phenol-chloroform extraction and ethanol precipitation to obtain the 3C templates. Primers flanking the Hind-III restriction sites located close to TEAD4-targeted gene CYR61 (Xie et al, [2019]) or MYC (Zanconato et al, [2015]) promoter (anchor primers) and enhancers were used to quantitively measure the promoter-enhancer interactions. The primers used are listed in Appendix Table S1.

CTGF mRNA = assay: RT-PCR of TEAD4 target genes; type: cell-based
Experimental: For RT-PCR, total RNA was isolated from cells using RNA Isolator Total RNA Extraction Reagent (Vazyme) according to the manufacturer’s instructions. The isolated RNA was reverse transcribed into cDNA using HiScpt II (Vazyme). Quantitative RT-PCR was performed using a CFX96^TM Real-Time system (Bio-Rad) and SYBR Green PCR master mix (Yeasen). The fold change in the gene expression was calculated using the comparative Ct method, and three replicates were tested for each cDNA sample. ACTB was used as an internal reference. Transcript copies of TEAD4 were determined by generating standard curves using plasmid DNA (TEAD4). Each experiment was repeated at least three times. The sequences of the primers are listed in Appendix Table S1.

GFP-TEAD4 condensates = assay: siRNA screening based on TEAD4 condensate; type: cell-based; settings: Figure 2B source data; siRNA against the named gene; Z score based analysis
Experimental: siRNA reagents were obtained from the Dharmacon Human ON-TARGETplus siRNA Smartpool Library (Thermo) as described previously (Tang et al, [2020]). […] Lipofectamine RNAiMAX reagent (Thermo) at a volume of 0.05 μl per well was then added to the siRNA-loaded plates. Subsequently, cells expressing GFP-TEAD4 were seeded into the plate at 2000 cells per well. After subsequent transfection for 48 h, the cells were fixed with 4% PFA at room temperature for 30 min. DAPI was used to identify individual nuclei. The plates were kept at 4 °C in the dark before being analyzed using the Opera system. Twenty focus fields per well were scanned and analyzed. Scrambled siRNA was used as an internal reference on each plate.

HGC-27 cells = assay: siRNA screening based on cell growth; design: species or system human; settings: Figure 2B source data; siRNA against the named gene; Z score based analysis
Experimental: For screening based on cell growth, HGC-27 cells (2000 per well) were seeded into a 96-well plate overnight. The individual siRNAs targeting 192 BioID-identified genes were then added into each well to a final concentration of 25 nM. After subsequent incubation for 48 h, the cells were analyzed using an ATP-based CellCounting-Lite^TM 2.0 reagent (Vazyme, Nanjing, China) according to the manufacturer’s instructions. The intracellular ATP contents were measured using an EnSight™ Multimode Microplate Reader (Perkin Elmer).

[3] = tested on: GFP-TEAD4 condensates in HEK293FT cells; assay: GFP-TEAD4 condensate imaging, condensed fraction in cells; type: cell-based; settings: Figure 2D source data, GFP-TEAD4 condensates with co-expressed cofactor, with or without 1,6-Hex, single measurement
[4] = tested on: HEK293FT cells transfected with TF library; assay: Screening of TF condensates based on fluorescent puncta; type: cell-based; settings: Figure 1B numerical data; TF library screen, one value per transcriptional factor
Experimental: TF plasmids were automatically added to black-walled 384-well plates at 80 ng per well to reach a final concentration of 1.6 μg/ml. Polyethylenimine (PEI, Sigma) was then added to the plasmid-loaded plates at 240 ng per well (4.8 μg/ml). Subsequently, HEK293FT cells were seeded into the plate at 2000 cells per well. After 60 h, cells were cultured in medium with or without glucose for 12 h, and then fixed with 4% paraformaldehyde (PFA) at room temperature for 30 min. After three washes with PBS, fixed cells were permeabilized with 0.05% Triton X-100 for 15 min. Thereafter, cells were blocked with 5% BSA for 1 h, and then incubated overnight with anti-Flag (Sigma F3165, 1:200) and anti-GAL4 (Abbkine ABP57232, 1:200) primary antibodies at 4 °C. The cells were then gently washed with PBS, followed by being incubated with Alexa Fluor Plus 488 goat anti-mouse IgG secondary antibody (Thermo A32723, 1:400) or Alexa Fluor Plus 488 goat anti-rabbit IgG secondary antibody (Thermo A32731, 1:400) for 1 h. The plates were kept at 4 °C in the dark before being analyzed using an Opera System (Perkin Elmer). Fifty random fields per well were scanned and analyzed using the Columbus Plus Image Data Storage and Analysis System (Perkin Elmer).

Compound	Z score of condensed fraction [4]	other results
OCCCCCCO [1,6-Hex, 1,6-hexanediol]		ChIP-qPCR enrichment of CTCF on CTGF promoter [1]: 0.0726 and 0.0717 and 0.0639; ChIP-qPCR enrichment of H3K27ac on CTGF promoter [1]: 0.0982 and 0.0959 and 0.0952; ChIP-qPCR enrichment of RNA Pol II on CTGF promoter [1]: 0.1941 and 0.1778 and 0.182; 3C interaction promoter-enhance1 (MYC locus) [2]: 0.8 and 0.75 and 0.85; 3C interaction promoter-enhance 4 (MYC locus) [2]: 0.8 and 0.65 and 0.74; Effect on GLUP-induced CTGF downregulation (CTGF mRNA; GLUP-treated cells with or without 1,6-Hex, mRNA): obviously abrogated GLUP-induced downregulation of CTGF; CTGF mRNA level (CTGF mRNA; VGLL4-overexpressing HEK293FT cells + 1,6-Hex 0.25% v/v, three biological replicates): 1.31 and 0.86 and 1.18
RCOR3		Z score of condensed fraction (GFP-TEAD4 condensates): 1.432; Z score of cell growth (HGC-27 cells): 0.05778
VGLL4: transcriptional cofactor protein with two TDU domains binding TEAD4		Condensed fraction ([3]; replicate 1 of 9): 31.2622%; Condensed fraction ([3]; replicate 2 of 9): 58.3357%; Condensed fraction ([3]; replicate 3 of 9): 38.0997%; Condensed fraction ([3]; replicate 4 of 9): 50.0073%; Condensed fraction ([3]; replicate 5 of 9): 50.0033%; Condensed fraction ([3]; replicate 6 of 9): 46.4819%; Condensed fraction ([3]; replicate 7 of 9): 42.8861%; Condensed fraction ([3]; replicate 8 of 9): 42.8738%; Condensed fraction ([3]; replicate 9 of 9): 35.7201%; Z score of condensed fraction (GFP-TEAD4 condensates): -4.055; Z score of cell growth (HGC-27 cells): 3.062
ZNF517	-0.6071	
ZNF529	-0.8409	
ZNF530	-0.1863	
ZNF540	-0.9698	
ZNF548	1.7562	
ZNF549	2.12	
ZNF556	-0.2629	
ZNF562	1.118	
ZNF572	-0.6768	
ZNF587	0.9024	
ZNF596	-0.5741	
ZNF621	-0.6157	
ZNF626	2.964	

Compound	Z score of condensed fraction [4]	other results
ZNF643	2.053	
ZNF670	2.5783	
ZNF677	-0.6787	
ZNF679	-1.052	
ZNF680	-0.6442	
ZNF689	-0.54	
ZNF695	-0.08978	
ZNF707	0.9339	
ZNF747	1.603	
ZNF768	-0.6686	
ZNF785	-0.4418	
ZNF829	0.6314	
ZSCAN2	-0.2191	
ZSCAN22	-0.5621	
ZSCAN23	0.2133	
